Source: patent publication US4101649A, “Hydrosoluble agents having non specific immunodepressive properties” (Agence Nationale de Valorisation de la Recherche (ANVAR), priority 1975, dated 1978)
“And” between values parts separate entries of the source, which are not always exact repeats. Equal values may be shown once.

What was measured:
antiovalbumin antibodies = test: Rate of antiovalbumin antibodies in guinea pigs three weeks after injection of ovalbumin in FIA emulsion; type: in vivo, Hartley guinea pigs
Experimental: In the two series of tests the results of which are indicated hereafter, the influence of the active principles of the drugs according to the invention on the antiovalbumin antibodies rate was studied under the following conditions.
(§1) Female Hartley guinea pigs of 300-350 g. were given in the plantar pad of each of the two rear paws an emulsion composed of equal parts of incomplete Freund's adjuvant and a physiological solution containing ovalbumin (5 mg/guinea pig) and the preparations to be tested. The Freund's incomplete adjuvant (FIA), the Freund's complete adjuvant (FCA) marketed by the DIFCO Company and N-acetylmuramyl-L-alanyl-D-isoglutamine were used as controls.
The rate of antibodies with respect to ovalbumin was determined three weeks later after the injection in the conditions which were indicated in the French patent Nr 71 41610 of Nov. 19, 1971; it is expressed in μg of the antigen-antibody precipitate per ml of serum at the point of equivalence.

[1] = test system: delayed hypersensivity to ovalbumin; test: Delayed hypersensitivity to ovalbumin (cutaneous reaction) in guinea pigs; type: in vivo, Hartley guinea pigs; details: 4 weeks after injection, 48 hours after 50 μg ovalbumine/animal sub-cutaneous
Experimental: as §1
In a second series of tests, the delayed hypersensivity to ovalbumin which produces a cutaneous reaction was measured four weeks after the injection; it is expressed by the diameter in millimetres of the erythema (E), of the induration (I) or of the necrosis (N), 48 hours after the sub-cutaneous injection of 50 micrograms of ovalbumin.

[2] = Table I, first series, 25 μg/animal + FIA, guinea pigs, 3 weeks after injection
[3] = Table II, second series, 25 μg/animal
[4] = Table II, second series, 100 μg/animal

Row | Structure (SMILES) | Antiovalbumin antibodies rates compared with animals which received Freund's incomplete adjuvant only (in words) (antiovalbumin antibodies; Table I) | Rate of antiovalbumin antibodies (individual animals) (antiovalbumin antibodies; [2]) | Rate of antiovalbumin antibodies, mean values (antiovalbumin antibodies; [2]) [μg proteins / ml serum] | Rate of antiovalbumin antibodies (individual animals) (antiovalbumin antibodies; [3]) | Rate of antiovalbumin antibodies, mean values (antiovalbumin antibodies; [3]) [μg proteins/ ml serum] | Rate of antiovalbumin antibodies (individual animals) (antiovalbumin antibodies; [4]) | Rate of antiovalbumin antibodies, mean values (antiovalbumin antibodies; [4]) [μg proteins/ ml serum] | Inhibition of the adjuvant action of Mur-N-Ac-L-Ala-D-Glu-α-NH2 when administered simultaneously (in words) (antiovalbumin antibodies; Table II, tests 5 and 6 versus test 3) | Delayed hypersensibility, cutaneous reaction (type letter not given) ([1]; 25 μg/animal) [millimetres] | Delayed hypersensibility, diameter of the induration (I) ([1]; 25 μg/animal) [millimetres] | Delayed hypersensibility, cutaneous reaction (type letter not given) ([1]; 100 μg/animal) [millimetres] | Delayed hypersensibility, diameter of the erythema (E) ([1]; 100 μg/animal) [millimetres]
1 | CC(=O)N[C@H]1C(O)O[C@H](CO)[C@@H](O)[C@@H]1O[C@H](C)C(=O)N[C@@H](C)C(=O)N[C@@H](CCC(=O)O)C(N)=O (stereo partly drawn) [Mur-N-Ac-L-Ala-L-Glu-,α-NH2, 2-(2-acetamido-2-deoxy-3-D-glucopyranosyl)-D-propionyl-L-Ala-L-Glu-α-NH2] | much lower | 1140 μg proteins / ml serum and 3400 μg proteins / ml serum and 4200 μg proteins / ml serum and 1700 μg proteins / ml serum and 800 μg proteins / ml serum and 700 μg proteins / ml serum and 2800 μg proteins / ml serum | 2104 | – | – | – | – | – | – | – | – | –
2 | CC(=O)NC1C(O)OC(CO)C(O)C1OC(C)C(=O)NC(C)C(=O)NC(CCC(=O)O)C(N)=O [Mur-N-Ac-D-Ala-D-Glu-,α-NH2, 2-(2-acetamido-2-deoxy-3-O-D-glucopyranose)-D-propionyl-D-alanyl-D-isoglutamine] | much lower | 200 μg proteins / ml serum and 800 μg proteins / ml serum and 900 μg proteins / ml serum and 1300 μg proteins / ml serum and 1900 μg proteins / ml serum and 1500 μg proteins / ml serum | 1068 | 1720 μg proteins/ ml serum and 660 μg proteins/ ml serum and 3600 μg proteins/ ml serum and 1800 μg proteins/ ml serum and 1760 μg proteins/ ml serum | 1890 | 950 μg proteins/ ml serum and 1000 μg proteins/ ml serum and 1200 μg proteins/ ml serum | 1050 | strongly inhibits the adjuvant action | 0 | 12 | 0 | 5
